The results in this text go back to US9403802B2, “Heterocyclic compound and use therefor” (Takeda Pharmaceutical Company Limited, priority 2012, dated 2016).

As a reminder, the Kp is tissue or fluid exposure divided by exposure in the circulation.

pEC50: −log10 of the molar value. Where two headings read alike, the source gives them in different places.

The target in data set [1] is T1, human M1 receptor (hCHRM1) (Homo sapiens, UniProt P11229).
T1 construct: expressed in transfected cells; host or cells: CHO-K1
T1 sequence (P11229 1-460): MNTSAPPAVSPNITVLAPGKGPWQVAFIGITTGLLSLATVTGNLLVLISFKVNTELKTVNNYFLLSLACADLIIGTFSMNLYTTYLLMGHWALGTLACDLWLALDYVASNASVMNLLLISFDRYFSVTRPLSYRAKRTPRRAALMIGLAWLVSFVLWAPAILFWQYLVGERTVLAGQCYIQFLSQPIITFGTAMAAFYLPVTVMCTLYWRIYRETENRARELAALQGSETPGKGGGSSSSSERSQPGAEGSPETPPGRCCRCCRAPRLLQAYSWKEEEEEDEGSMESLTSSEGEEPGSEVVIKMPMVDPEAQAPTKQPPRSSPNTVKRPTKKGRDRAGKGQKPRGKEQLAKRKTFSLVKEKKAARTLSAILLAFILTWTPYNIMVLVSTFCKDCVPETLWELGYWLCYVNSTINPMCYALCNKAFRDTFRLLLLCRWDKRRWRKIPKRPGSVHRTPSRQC
The data set can be described thus: Measurement of cholinergic muscarinic M1 receptor positive allosteric modulator (M1PAM) activity, calcium fluorescence (FLIPRtetra). In kind it is cell-based. The following applies: for activity (%) at 10 μM: test compound 10 μM with acetylcholine at EC20 (final 0.6 nM), 100% = acetylcholine 1 μM, 0% = DMSO. The procedure: The activity of a test compound in the presence of acetylcholine at EC20 concentration (final concentration 0.6 nM), which affords an action corresponding to 20% of the maximum activity, was measured as M1PAM activity. The method is as follows. CHO-K1 cells forcibly expressing a human M1 receptor (hCHRM1) were plated on a 384-well black clear bottom plate (BD Falcon) at 5,000 cells/well, and cultured in an incubator at 37° C., 5% CO2 for 1 day. The medium in the cell plate was removed, and assay buffer A (Recording medium (DOJINDO LABORATORIES), 0.1% bovine serum albumin (BSA) (Wako Pure Chemical Industries, Ltd.), 2.5 μg/mL Fluo-4 AM (DOJINDO LABORATORIES), 0.08% Pluronic F127 (DOJINDO LABORATORIES), 1.25 mM probenecid (DOJINDO LABORATORIES)) containing a calcium indicator was added at 30 μL/well. The cells were left standing in the incubator at 37° C., 5% CO2 for 30 min, and further left standing at room temperature for 30 min. A test compound prepared by diluting with assay buffer B (HBSS (Invitrogen), 20 mM HEPES (Invitrogen), 0.1% BSA) containing 2.4 nM acetylcholine was added at 10 μL/well, and the fluorescence was measured by FLIPRtetra (Molecular Devices) for 1 min every 1 second. With the definition that the amount of change in the fluorescence on addition of acetylcholine (final concentration 1 μM) is 100% and that on addition of DMSO instead of a test compound is 0%, the activity (%) of the test compound and the inflection point in the concentration-dependent curve of the test compound were calculated as IP values.

A short description of data set [2]: Central migration (Kp value) measurement test. Particulars: male, Jcl ICR, mouse, brain/plasma, mice, ratio of intracerebral (μg/g) to plasma (μg/mL) concentration; for Kp at 1 h: po, 1 mg/kg, 1 mg/10 mL/kg. Format: in vivo. The procedure:
A. Compounds of Examples 6 and 10 (Intravenous Administration: i.v.) […]
animal: male Jcl ICR mice 7-week-old n=3 […]
administration conditions: intravenous administration 0.20 mg/l mL/kg (4 compounds/cassette administration) administration medium: N,N-dimethylacetamide (DMA)/1,3-Butanediol (1:1) sample: plasma, brain (homogenate was prepared by adding 4-fold amount of saline) plasma sampling time: 0.25 hr brain sampling time: 0.25 hr […]
animal: male Jcl ICR mice 8-week-old n=3 […]
administration medium: DMA/1,3-Butanediol (1:1) […]
plasma sampling time: 0.5 hr brain sampling time: 0.5 hr […]
column: Shimadzu Shim-pack XR-ODS (2.2 μm, 2.0×30 mm) mobile phase A: 10 mmol/L ammonium formate/formic acid (100:0.2, v/v) mobile phase B: acetonitrile/formic acid (100:0.2, v/v) […]
column temperature: 50° C. sample injection volume: 1 μL (Example 6), 2 μL (Example 10) plasma pre-treatment conditions: A standard solution dissolution solvent (DMSO) or a standard solution (5 μL) was added to a sample (50 μL). Acetonitrile (150 μL) containing the internal standard substance was added, and the mixture was vigorously stirred and centrifuged at 5250 rpm. A dilution solvent (160 μL) was added to the centrifuged supernatant (60 μL). The solution (40 μL) was taken, and the dilution solvent (160 μL) was added to give a sample solution for compound plasma concentration measurement (mobile phase A:mobile phase B=7:3 (v/v) was used as the dilution solvent). brain pre-treatment conditions: The standard solution dissolution solvent (DMSO) or standard solution (5 μL) was added to a sample (50 μL). Acetonitrile (150 μL) containing the internal standard substance was added, and the mixture was vigorously stirred, and centrifuged at 5250 rpm. A dilution solvent (160 μL) was added to the centrifuged supernatant (60 μL). The solution (40 μL) was taken, and the dilution solvent (160 μL) was added to give a sample solution for intracerebral compound concentration measurement (mobile phase A:mobile phase B=7:3 (v/v) was used as the dilution solvent). B. Compounds of Examples 92 and 94 (Oral Administration: p.o.) animal: male Jcl ICR mice 10-week-old n=3 feeding: nonfasting administration conditions: oral administration 1 mg/10 mL/kg (5 compounds/cassette administration) administration medium: 0.5% methylcellulose solution sample: plasma, brain (homogenate was prepared by adding 4-fold amount of saline) plasma sampling time: 1 hr brain sampling time: 1 hr HPLC Analysis Conditions column: Shimadzu Shim-pack XR-ODS (2.2 μm, 2.0×30 mm) mobile phase A: 10 mmol/L ammonium formate/formic acid (100:0.2, v/v) mobile phase B: acetonitrile/formic acid (100:0.2, v/v) flow rate: 0.7 mL/min. column temperature: 50° C. sample injection volume: 1 μL […]

Where [3] appears, read: inflection point of the concentration-dependent curve, with acetylcholine at EC20 (final 0.6 nM), CHO-K1 cells expressing hCHRM1, read-out: IP value.

Regarding `COc1ccc(Cn2cc(C(=O)N[C@H]3CCOC[C@@H]3O)c(=O)c3c(F)ccc(F)c32)cc1` (racemic) [Example 6, 1,5-anhydro-2,3-dideoxy-3-({[5,8-difluoro-1-(4-methoxybenzyl)-4-oxo-1,4-dihydroquinolin-3-yl]carbonyl}amino)-DL-threo-pentitol], the pEC50 in data set [1] was 7.80. Further, the “activity (%) at 10 μM” value in data set [1] (CHO-K1 cells expressing hCHRM1) is on record as 98%. Moreover, in data set [2] (iv, 0.2 mg/kg, 0.2 mg/1 mL/kg, sampling time 0.25 hr), the Kp at 0.25 h was 0.1.
As for `COc1ccc(Cn2cc(C(=O)N[C@H]3CCCC[C@@H]3O)c(=O)c3c(F)ccc(F)c32)cc1` (racemic) [Example 10, 5,8-difluoro-N-[(1,2-trans)-2-hydroxycyclohexyl]-1-(4-methoxybenzyl)-4-oxo-1,4-dihydroquinoline-3-carboxamide], the pEC50 in data set [1] is 7.26. Further, the “activity (%) at 10 μM” value in data set [1] (CHO-K1 cells expressing hCHRM1) came out at 103%. The Kp at 0.5 h in data set [2] (iv, 0.2 mg/kg, 0.2 mg/1 mL/kg, sampling time 0.5 hr) was 0.33.
As for `O=C(N[C@H]1CCC[C@@H]1O)c1cn(Cc2ccc(-n3cccn3)cc2)c2c(F)cccc2c1=O` (racemic) [Example 92, 8-fluoro-N-[(1,2-trans)-2-hydroxycyclopentyl]-4-oxo-1-[4-(1H-pyrazol-1-yl)benzyl]-1,4-dihydroquinoline-3-carboxamide], in data set [1], the pEC50 is 7.26. Moreover, the “activity (%) at 10 μM” value in data set [1] (CHO-K1 cells expressing hCHRM1) amounted to 104%. Besides, in data set [2], the Kp at 1 h worked out at 0.16.
For `Cc1nn(C)cc1-c1ccc(Cn2cc(C(=O)N[C@H]3CCC[C@@H]3O)c(=O)c3ccccc32)cc1` (racemic) [Example 94, 1-[4-(1,3-dimethyl-1H-pyrazol-4-yl)benzyl]-N-[(1,2-trans)-2-hydroxycyclopentyl]-4-oxo-1,4-dihydroquinoline-3-carboxamide] the same measures were 8.07, 95% and 0.03.
Take `COc1ccc(Cn2nc(C(=O)N[C@@H]3CCCC[C@H]3O)c(=O)c3ccccc32)cc1` [Example 52, N-[(1R,2R)-2-hydroxycyclohexyl]-1-(4-methoxybenzyl)-4-oxo-1,4-dihydrocinnoline-3-carboxamide]: in data set [1] (setting [3]), the pEC50 is 5.72. Moreover, in data set [1] (CHO-K1 cells expressing hCHRM1), the “activity (%) at 10 μM” value was 87%.
For `NC(=O)c1ccc(Cn2nc(C(N)=O)c(=O)c3ccccc32)cc1` [Example 73, 1-(4-carbamoylbenzyl)-4-oxo-1,4-dihydrocinnoline-3-carboxamide] the same measures were 7.20 and 96%.
Regarding `NC(=O)c1ccc(Cn2cc(C(=O)N[C@H]3CCCC[C@@H]3O)c(=O)c3ccccc32)cc1` [Example 78, 1-(4-carbamoylbenzyl)-N-[(1S,2S)-2-hydroxycyclohexyl]-4-oxo-1,4-dihydroquinoline-3-carboxamide], the pEC50 in data set [1] was 8.66. Also, in data set [1] (CHO-K1 cells expressing hCHRM1), the “activity (%) at 10 μM” value is 86%.
